Values joined by “and” are separate entries in the source; they are usually repeats but may differ in a detail not shown here. Equal entries are not always repeated.

The subject of experiment [1] is rd10 mice. Put plainly: rd10 mouse model of retinitis pigmentosa (SD-OCT, electroretinogram, histology, electron microscopy, western blot). The class given is in vivo. The note with it: 21-day-old, 50 mg/kg daily i.p. from day 7, vs control. How it is done: Starting 7 days after birth, KUS121 or KUS187 was administered daily (50 mg/kg) by intraperitoneal injection. […] To test the visual function of the mice, dark-adapted electroretinograms were recorded. The amplitude of the a-wave, which represents visual function of photoreceptors, was smaller in the control mice than in the KUS-treated mice (Supplementary Fig. 5b and c). The peak latency of the a-wave, which negatively correlates with visual function of photoreceptors, was delayed in the control mice as compared with the KUS-treated mice (Supplementary Fig. 5d). At age 25 days, the thinning of the outer nuclear layer (ONL) was clearly observed in the control mice (Fig. 5a). The outer nuclear layer and the junction line between the inner segment and outer segment (arrow heads in Fig. 5a), which is generally considered to be positively associated with visual function, were clearly detected in the KUS-treated but not in control mice. […] At age 29 days, the photoreceptor layer was barely detected in SD-OCT images, and electroretinogram records were almost flat in control mice. […]
Spectral-domain optical coherence tomography (SD-OCT) examinations using Multiline OCT (Heidelberg Engineering, Heidelberg, Germany) were performed[33] in rd10 mice at ages of 21, 25, 29, and 33days. Total retinal thickness (from inner limiting membrane to Bruch membrane) in rd10 mice was measured using volume scan images[33] within a circle 0.366 mm in diameter, the center of which was adjusted to the center of the optic nerve head. […]
Electroretinogram recording was performed to assess the visual function of rd10 mice at ages of 21, 25, 29, and 33 days. […] Electroretinograms were recorded using a gold loop corneal electrode with a light-emitting diode (Mayo Corp., Inazawa, Japan). […] The electroretinogram response signals were amplified, digitized at 10 kHz with a band-pass filter of 0.3 to 500 Hz, and analyzed (PowerLab 2/25; AD instruments, New South Wales, Australia). […]

Experiment [2] concerns the target recombinant VCP (Homo sapiens, UniProt P55072). Briefly: ATPase activity of recombinant VCP in vitro (modified molybdate assay, [γ-32P]ATP). The class given is biochemical. The method, then:
We measured ATPase activities by modifying the molybdate assay, which was as described previously. In the assay, 1 μg of whole cell soluble lysate of neuronally differentiated PC12 cells, or 500 ng recombinant VCP protein, was incubated in 20 μl of the ATPase assay buffer (20 mM HEPES (pH 7.4), 50 mM KCl, 5 mM MgCl2) with 100 μM [γ-^32P]ATP (18.5 GBq/mmol) (PerkinElmer) at 37°C for 20 min. After incubation, the reaction was quenched by addition of 200 μl of 8% ice-cold trichloroacetic acid solution with 1 mM K2HPO4, and then 50 μl of solution A (3.75% ammonium molybdate, 0.02 M silicotungstic acid in 3 N H2SO4) and 300 μl of n-butyl acetate were added to the reaction. The samples were mixed well and centrifuged at 12,000 × g for 1 min. Then, 200 μl aliquots from the upper organic phases were taken and their radioactivity was determined with a liquid scintillation counter for β-radiation, which determined the amounts of ^32P released.

Sequence of recombinant VCP (P55072 whole entry, species assumed): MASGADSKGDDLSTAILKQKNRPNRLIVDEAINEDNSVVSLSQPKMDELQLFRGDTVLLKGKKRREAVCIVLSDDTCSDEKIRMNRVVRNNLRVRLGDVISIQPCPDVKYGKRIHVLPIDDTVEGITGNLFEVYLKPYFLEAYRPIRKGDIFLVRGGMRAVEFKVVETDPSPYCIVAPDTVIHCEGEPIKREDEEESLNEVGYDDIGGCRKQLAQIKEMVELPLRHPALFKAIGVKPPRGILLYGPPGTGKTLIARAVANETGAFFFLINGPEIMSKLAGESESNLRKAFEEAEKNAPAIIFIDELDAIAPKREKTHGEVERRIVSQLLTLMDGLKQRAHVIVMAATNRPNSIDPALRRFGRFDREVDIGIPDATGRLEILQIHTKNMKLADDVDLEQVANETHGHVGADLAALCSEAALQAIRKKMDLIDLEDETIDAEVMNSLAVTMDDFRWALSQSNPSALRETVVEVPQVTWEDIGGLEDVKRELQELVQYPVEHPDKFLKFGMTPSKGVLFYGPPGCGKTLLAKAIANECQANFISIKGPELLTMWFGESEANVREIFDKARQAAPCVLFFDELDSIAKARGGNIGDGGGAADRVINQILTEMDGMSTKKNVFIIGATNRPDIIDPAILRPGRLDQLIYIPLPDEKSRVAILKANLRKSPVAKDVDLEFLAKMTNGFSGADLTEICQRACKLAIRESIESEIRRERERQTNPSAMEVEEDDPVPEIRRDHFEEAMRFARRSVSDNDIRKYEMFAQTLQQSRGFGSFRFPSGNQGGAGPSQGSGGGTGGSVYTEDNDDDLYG

`Cc1cc(F)ccc1-c1ccc(/N=N/c2cc(S(=O)(=O)O)c3ccccc3c2N)cn1` [KUS121]: in experiment [1], the “mean amplitude of the a-wave, dark-adapted electroretinogram” value is given as “larger than that in control rd10 mice”. The IC50 in experiment [2] is 200 to 300 nM and 330 nM.

For the origin of these results see publication PMC4122966, “Novel VCP modulators mitigate major pathologies of rd10, a mouse model of retinitis pigmentosa” (Scientific Reports, 2014).
